Reference: patent US12577206B2 (BRISTOL-MYERS SQUIBB COMPANY, priority 2020, dated 2026)

What was measured:
human FPR2 = target: T1, human FPR2 (Homo sapiens, UniProt P25090); test: FPR2 cyclic adenosine monophosphate (cAMP) assay; format: cell-based; details: CHO cells overexpressing human FPR2; forskolin 5 μM; inhibition of cAMP production; HTRF; read-out: hFPR2 cAMP2 EC50
T1 sequence (P25090 1-351): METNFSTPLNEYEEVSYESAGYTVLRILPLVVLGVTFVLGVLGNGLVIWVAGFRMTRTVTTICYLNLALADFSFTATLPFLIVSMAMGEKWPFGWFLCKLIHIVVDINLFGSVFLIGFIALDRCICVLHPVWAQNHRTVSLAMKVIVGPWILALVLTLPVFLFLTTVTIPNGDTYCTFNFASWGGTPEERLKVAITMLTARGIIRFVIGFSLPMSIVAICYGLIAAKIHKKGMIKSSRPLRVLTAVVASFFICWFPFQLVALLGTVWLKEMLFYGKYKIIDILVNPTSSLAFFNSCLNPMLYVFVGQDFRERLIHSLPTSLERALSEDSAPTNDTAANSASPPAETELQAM
Procedure, shortened: (§1)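 Gi-coupled activity is read as suppression of forskolin-stimulated cAMP (10 μM final for FPR1, 5 μM final for FPR2; IBMX 200 μM final) in recombinant CHO cells, 30 min incubation at rt, HTRF detection.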

human FPR1 = target: T2, human FPR1 (Homo sapiens, UniProt P21462); test: FPR1 cyclic adenosine monophosphate (cAMP) assay; format: cell-based; details: CHO cells overexpressing human FPR1; forskolin 10 μM; inhibition of cAMP production; HTRF; read-out: hFPR1 cAMP2 EC50
T2 sequence (P21462 1-350): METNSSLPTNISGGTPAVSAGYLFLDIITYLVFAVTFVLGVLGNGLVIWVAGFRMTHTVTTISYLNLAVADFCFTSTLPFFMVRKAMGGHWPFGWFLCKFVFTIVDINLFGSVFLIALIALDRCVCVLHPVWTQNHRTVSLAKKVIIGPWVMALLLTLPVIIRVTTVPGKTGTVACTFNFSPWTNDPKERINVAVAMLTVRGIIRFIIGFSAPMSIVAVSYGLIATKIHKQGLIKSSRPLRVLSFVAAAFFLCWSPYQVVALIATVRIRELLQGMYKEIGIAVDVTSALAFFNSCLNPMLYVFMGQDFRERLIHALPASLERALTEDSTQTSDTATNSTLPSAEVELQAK
Procedure, shortened: as §1

Row | SMILES | EC50 (human FPR2) [nM] | EC50 (human FPR1) [nM]
1 | COc1cc(F)c(-c2c(NC(=O)c3ccc(OC(F)F)cc3)c(=O)n(-c3cccc(N4CCOCC4)n3)n2C)c(F)c1 [Example 79, N-[5-(2,6-difluoro-4-methoxyphenyl)-1-methyl-2-[6-(morpholin-4-yl)pyridin-2-yl]-3-oxo-2,3-dihydro-1H-pyrazol-4-yl]-4-(difluoromethoxy)benzamide] | 10 | > 10000
2 | COc1cc(F)c(-c2c(NC(=O)c3ccc(OC(F)F)cc3)c(=O)n(-c3cccc(CO)n3)n2C)c(F)c1 [Example 81, N-[5-(2,6-difluoro-4-methoxyphenyl)-2-[6-(hydroxymethyl)pyridin-2-yl]-1-methyl-3-oxo-2,3-dihydro-1H-pyrazol-4-yl]-4-(difluoromethoxy)benzamide] | 17 | > 10000
3 | COc1cc(F)c(-c2c(NC(=O)c3ccc(OC(F)F)cc3)c(=O)n(-c3cccc(NC(=O)C(C)(C)C)n3)n2C)c(F)c1 [Example 84, N-[5-(2,6-difluoro-4-methoxyphenyl)-2-[6-(2,2-dimethylpropanamido)pyridin-2-yl]-1-methyl-3-oxo-2,3-dihydro-1H-pyrazol-4-yl]-4-(difluoromethoxy)benzamide] | 5 | 82
4 | COc1cc(F)c(-c2c(NC(=O)c3ccc(OC(F)F)cc3)c(=O)n(-c3cccc(C(C)(C)O)n3)n2C)c(F)c1 [Example 85] | 5 | 750
5 | COc1cc(F)c(-c2c(NC(=O)c3ccc(OC(F)F)cc3)c(=O)n(-c3cccc(C(C)O)n3)n2C)c(F)c1 (stereo not drawn) [Example 86, N-[5-(2,6-difluoro-4-methoxyphenyl)-2-[6-(1-hydroxyethyl)pyridin-2-yl]-1-methyl-3-oxo-2,3-dihydro-1H-pyrazol-4-yl]-4-(difluoromethoxy)benzamide] | 10 | 1400
6 | COc1cc(N2C[C@@H](C)O[C@@H](C)C2)nc(-n2c(=O)c(NC(=O)c3ccc(OC(F)F)cc3)c(-c3c(F)cc(OC)cc3F)n2C)c1 [Example 92, N-[5-(2,6-difluoro-4-methoxyphenyl)-2-{6-[(2R,6S)-2,6-dimethylmorpholin-4-yl]-4-methoxypyridin-2-yl}-1-methyl-3-oxo-2,3-dihydro-1H-pyrazol-4-yl]-4-(difluoromethoxy)benzamide] | 16 | 2100
7 | COc1cc(F)c(-c2c(NC(=O)c3ccc(OC(F)F)cc3)c(=O)n(-c3cc(C)cc(C)c3)n2C)c(F)c1 [Example 109, N-[5-(2,6-difluoro-4-methoxyphenyl)-2-(3,5-dimethylphenyl)-1-methyl-3-oxo-2,3-dihydro-1H-pyrazol-4-yl]-4-(difluoromethoxy)benzamide] | 11 | 8100
8 | COc1cc(F)c(-c2c(NC(=O)c3ccc(OC(F)F)cc3)c(=O)n(-c3cccc(C#N)c3)n2C)c(F)c1 [Example 110, N-[2-(3-cyanophenyl)-5-(2,6-difluoro-4-methoxyphenyl)-1-methyl-3-oxo-2,3-dihydro-1H-pyrazol-4-yl]-4-(difluoromethoxy)benzamide] | 9 | 37
9 | COc1cc(F)c(-c2c(NC(=O)c3ccc(OC(F)F)cc3)c(=O)n(-c3cccc(C4CC4)c3)n2C)c(F)c1 [Example 111, N-[2-(3-cyclopropylphenyl)-5-(2,6-difluoro-4-methoxyphenyl)-1-methyl-3-oxo-2,3-dihydro-1H-pyrazol-4-yl]-4-(difluoromethoxy)benzamide] | 4 | 2
10 | COc1cccc(-n2c(=O)c(NC(=O)c3ccc(OC(F)F)cc3)c(-c3c(F)cc(OC)cc3F)n2C)c1 [Example 112, N-[5-(2,6-difluoro-4-methoxyphenyl)-2-(3-methoxyphenyl)-1-methyl-3-oxo-2,3-dihydro-1H-pyrazol-4-yl]-4-(difluoromethoxy)benzamide] | 5 | 3

The remaining molecules from weak to strong by EC50 (human FPR2), led by results:

Row | EC50 (human FPR2) [nM] | EC50 (human FPR1) [nM] | SMILES
11 | 4 | 780 | COc1cc(F)c(-c2c(NC(=O)c3ccc(OC(F)F)cc3)c(=O)n(-c3cccc(C4(O)CCC4)n3)n2C)c(F)c1 [Example 87, N-(5-(2,6-difluoro-4-methoxyphenyl)-2-(6-(1-hydroxycyclobutyl)pyridin-2-yl)-1-methyl-3-oxo-2,3-dihydro-1H-pyrazol-4-yl)-4-(difluoromethoxy)benzamide]
12 | 3 | 900 | COc1cc(-n2c(=O)c(NC(=O)c3ccc(OC(F)F)cc3)c(-c3c(F)cc(OC)cc3F)n2C)nc(C(C)(C)O)c1 [Example 89, N-[5-(2,6-difluoro-4-methoxyphenyl)-2-[6-(2-hydroxypropan-2-yl)-4-methoxypyridin-2-yl]-1-methyl-3-oxo-2,3-dihydro-1H-pyrazol-4-yl]-4-(difluoromethoxy)benzamide]
13 | 3 | 3400 | COc1cc(N2CC[C@H](O)C2)nc(-n2c(=O)c(NC(=O)c3ccc(OC(F)F)cc3)c(-c3c(F)cc(OC)cc3F)n2C)c1 [Example 97, N-[5-(2,6-difluoro-4-methoxyphenyl)-2-{6-[(3S)-3-hydroxypyrrolidin-1-yl]-4-methoxypyridin-2-yl}-1-methyl-3-oxo-2,3-dihydro-1H-pyrazol-4-yl]-4-(difluoromethoxy)benzamide]
14 | 3 | 6200 | COc1cc(F)c(-c2c(NC(=O)c3ccc(OC(F)F)cc3)c(=O)n(-c3cccc(N4CC(F)(F)C4)n3)n2C)c(F)c1 [Example 104, N-[5-(2,6-difluoro-4-methoxyphenyl)-2-[6-(3,3-difluoroazetidin-1-yl)pyridin-2-yl]-1-methyl-3-oxo-2,3-dihydro-1H-pyrazol-4-yl]-4-(difluoromethoxy)benzamide]
15 | 2 | 1300 | COc1cc(F)c(-c2c(NC(=O)c3ccc(OC(F)F)cc3)c(=O)n(-c3cccc(N4CCCCC4)n3)n2C)c(F)c1 [Example 80, N-[5-(2,6-difluoro-4-methoxyphenyl)-1-methyl-3-oxo-2-[6-(piperidin-1-yl)pyridin-2-yl]-2,3-dihydro-1H-pyrazol-4-yl]-4-(difluoromethoxy)benzamide]
16 | 2 | 520 | COc1cc(F)c(-c2c(NC(=O)c3ccc(OC(F)F)cc3)c(=O)n(-c3cccc(N(C)C)n3)n2C)c(F)c1 [Example 82, N-[5-(2,6-difluoro-4-methoxyphenyl)-2-[6-(dimethylamino)pyridin-2-yl]-1-methy-3-oxo-2,3-dihydro-1H-pyrazol-4-yl]-4-(difluoromethoxy)benzamide]
17 | 2 | > 10000 | COc1cc(F)c(-c2c(NC(=O)c3ccc(OC(F)F)cc3)c(=O)n(-c3cccc(N4CCN(C)CC4)n3)n2C)c(F)c1 [Example 83, N-[5-(2,6-difluoro-4-methoxyphenyl)-1-methyl-2-[6-(4-methylpiperazin-1-yl)pyridin-2-yl]-3-oxo-2,3-dihydro-1H-pyrazol-4-yl]-4-(difluoromethoxy)benzamide]
18 | 2 | 6300 | COc1cc(C2CC2)nc(-n2c(=O)c(NC(=O)c3ccc(OC(F)F)cc3)c(-c3c(F)cc(OC)cc3F)n2C)c1 [Example 88, N-(2-(6-cyclopropyl-4-methoxypyridin-2-yl)-5-(2,6-difluoro-4-methoxyphenyl)-1-methyl-3-oxo-2,3-dihydro-1H-pyrazol-4-yl)-4-(difluoromethoxy)benzamide]
19 | 2 | 1800 | COc1cc(N2C[C@@H](C)N(C)[C@@H](C)C2)nc(-n2c(=O)c(NC(=O)c3ccc(OC(F)F)cc3)c(-c3c(F)cc(OC)cc3F)n2C)c1 [Example 93, N-[5-(2,6-difluoro-4-methoxyphenyl)-2-{4-methoxy-6-[(3R,5S)-3,4,5-trimethylpiperazin-1-yl]pyridin-2-yl}-1-methyl-3-oxo-2,3-dihydro-1H-pyrazol-4-yl]-4-(difluoromethoxy)benzamide]
20 | 2 | 1600 | COc1cc(-n2c(=O)c(NC(=O)c3ccc(OC(F)F)cc3)c(-c3c(F)cc(OC)cc3F)n2C)nc(C2(O)CCC2)c1 [Example 100, N-[5-(2,6-difluoro-4-methoxyphenyl)-2-[6-(1-hydroxycyclobutyl)-4-methoxypyridin-2-yl]-1-methyl-3-oxo-2,3-dihydro-1H-pyrazol-4-yl]-4-(difluoromethoxy)benzamide]
21 | 2 | 1000 | COc1cc(F)c(-c2c(NC(=O)c3ccc(OC(F)F)cc3)c(=O)n(-c3cccc(N4CC[C@H](O)C4)n3)n2C)c(F)c1 [Example 102, N-[5-(2,6-difluoro-4-methoxyphenyl)-2-{6-[(3S)-3-hydroxypyrrolidin-1-yl]pyridin-2-yl}-1-methyl-3-oxo-2,3-dihydro-1H-pyrazol-4-yl]-4-(difluoromethoxy)benzamide]
